Source: the NIST ThermoML archive (doi:10.1016/j.jct.2006.05.006)

Test: xn = mol fraction of the nth substance listed
Conditions: 101 kPa, Liquid

CN1CCCC1=O [N-methylpyrrolidone] + Cc1ccccc1
Conditions	mass density [kg/m3]
293.15 K, x2 = 0	1032.66
293.15 K, x2 = 0.0541	1024.34
293.15 K, x2 = 0.1254	1013.29
293.15 K, x2 = 0.1845	1004.06
293.15 K, x2 = 0.2412	995.15
293.15 K, x2 = 0.3154	983.34
293.15 K, x2 = 0.3845	972.23
293.15 K, x2 = 0.4521	961.22
293.15 K, x2 = 0.5214	949.8
293.15 K, x2 = 0.5865	938.94
293.15 K, x2 = 0.6458	928.94
293.15 K, x2 = 0.7124	917.57
293.15 K, x2 = 0.7784	906.16
293.15 K, x2 = 0.8425	894.94
293.15 K, x2 = 0.9014	884.51
293.15 K, x2 = 0.9784	870.71
303.15 K, x2 = 0	1023.42
303.15 K, x2 = 0.0482	1016
303.15 K, x2 = 0.1235	1004.32
303.15 K, x2 = 0.1856	994.6
303.15 K, x2 = 0.2436	985.45
303.15 K, x2 = 0.3145	974.17
303.15 K, x2 = 0.3854	962.74
303.15 K, x2 = 0.4521	951.88
303.15 K, x2 = 0.5236	940.09
303.15 K, x2 = 0.5852	929.81
303.15 K, x2 = 0.6451	919.71
303.15 K, x2 = 0.7145	907.86
303.15 K, x2 = 0.7854	895.61
303.15 K, x2 = 0.8541	883.57
303.15 K, x2 = 0.9015	875.19
303.15 K, x2 = 0.9789	861.34
313.15 K, x2 = 0	1014.27
313.15 K, x2 = 0.0522	1006.21
313.15 K, x2 = 0.1257	994.77
313.15 K, x2 = 0.1901	984.67
313.15 K, x2 = 0.2401	976.76
313.15 K, x2 = 0.321	963.85
313.15 K, x2 = 0.3952	951.86
313.15 K, x2 = 0.4654	940.38
313.15 K, x2 = 0.5321	929.35
313.15 K, x2 = 0.5984	918.25
313.15 K, x2 = 0.6541	908.84
313.15 K, x2 = 0.7248	896.74
313.15 K, x2 = 0.7895	885.54
313.15 K, x2 = 0.8412	876.51
313.15 K, x2 = 0.9215	862.31
313.15 K, x2 = 0.9759	852.57
323.15 K, x2 = 0	1005.62
323.15 K, x2 = 0.0487	998.04
323.15 K, x2 = 0.1147	987.71
323.15 K, x2 = 0.1789	977.59
323.15 K, x2 = 0.2365	968.43
323.15 K, x2 = 0.2987	958.46
323.15 K, x2 = 0.3695	947
323.15 K, x2 = 0.4351	936.27
323.15 K, x2 = 0.4954	926.31
323.15 K, x2 = 0.5654	914.62
323.15 K, x2 = 0.6215	905.15
323.15 K, x2 = 0.6945	892.69
323.15 K, x2 = 0.7658	880.39
323.15 K, x2 = 0.8321	868.8
323.15 K, x2 = 0.9201	853.23
323.15 K, x2 = 0.9758	843.26
333.15 K, x2 = 0	996.28
333.15 K, x2 = 0.0478	988.83
333.15 K, x2 = 0.1102	979.04
333.15 K, x2 = 0.1874	966.85
333.15 K, x2 = 0.2451	957.65
333.15 K, x2 = 0.3147	946.45
333.15 K, x2 = 0.3984	932.84
333.15 K, x2 = 0.4682	921.37
333.15 K, x2 = 0.5321	910.74
333.15 K, x2 = 0.5984	899.6
333.15 K, x2 = 0.6541	890.15
333.15 K, x2 = 0.7241	878.16
333.15 K, x2 = 0.7985	865.26
333.15 K, x2 = 0.8541	855.52
333.15 K, x2 = 0.921	843.69
333.15 K, x2 = 0.98	833.15
343.15 K, x2 = 0	987.39
343.15 K, x2 = 0.0512	979.36
343.15 K, x2 = 0.1245	967.81
343.15 K, x2 = 0.1895	957.47
343.15 K, x2 = 0.246	948.41
343.15 K, x2 = 0.3124	937.69
343.15 K, x2 = 0.3841	926
343.15 K, x2 = 0.4514	914.91
343.15 K, x2 = 0.5214	903.26
343.15 K, x2 = 0.5954	890.81
343.15 K, x2 = 0.6598	879.85
343.15 K, x2 = 0.7214	869.28
343.15 K, x2 = 0.7954	856.43
343.15 K, x2 = 0.8596	845.17
343.15 K, x2 = 0.9214	834.23
343.15 K, x2 = 0.9788	823.98
353.15 K, x2 = 0	978.62
353.15 K, x2 = 0.0821	965.64
353.15 K, x2 = 0.1337	957.42
353.15 K, x2 = 0.1993	946.92
353.15 K, x2 = 0.2646	936.37
353.15 K, x2 = 0.3306	925.62
353.15 K, x2 = 0.3965	914.8
353.15 K, x2 = 0.4514	905.7
353.15 K, x2 = 0.5214	894
353.15 K, x2 = 0.5984	880.99
353.15 K, x2 = 0.6514	871.96
353.15 K, x2 = 0.7214	859.91
353.15 K, x2 = 0.7984	846.52
353.15 K, x2 = 0.858	836.05
353.15 K, x2 = 0.9265	823.91
353.15 K, x2 = 0.9799	814.38
